# Assay results as given in patent US7285567B2, “Halogenated benzamide derivatives” (Romark Laboratories, L.C., priority 2005, dated 2007).
# Tests used:
# Assay type in all cases: cell-based
# [1] = test system: Paramyxovirus: Sendai virus; test: microbe, parasite or virus in culture; details: Sendai virus, 37RC cell culture (Table 1)
# B. fragilis group = test: CLSI agar dilution MIC, anaerobic clinical isolates; details: Bacteroides fragilis, B. fragilis gp (40 isolates), 48 h, 35° C.
# Experimental: (§1) Methods. Recent clinical anaerobic isolates (2000 to date) comprised 40 B. fragilis group, 26 Prevotella/Porphyromonas, 28 fusobacteria, 16 anaerobic Gram positive cocci, 14 anaerobic Gram-positive non-sporeforming rods and 18 clostridia. CLSI agar dilution MIC methodology with enriched Brucella blood agar and inocula of 1×10^5 cfu/spot was used. Plates were incubated in an anaerobic glove box at 35° C. for 48 h. Results.
# Prevotella/Porphyromonas = test: as above; details: Prev/Porphy (26 isolates), 48 h
# Experimental: as §1
# fusobacteria = test: as above; details: Fusobacteria (28 isolates), 48 h
# Experimental: as §1
smiles,measurement,setting,value
"CC(=O)Oc1c(C)cccc1C(=O)Nc1ncc(Br)s1 [RM-4803, 2-(acetolyloxy)-3-methyl-N-(5-bromo-2-thiazolyl)benzamide]",EC50,[1]; Respirovirus muris,1100 nM
same,SI (selectivity index) = CC50/EC50,[1]; CC50 by MTT,> 125
same,MIC50,B. fragilis group,> 32 µg/mL
same,MIC90,B. fragilis group,> 32 µg/mL
same,MIC50,Prevotella/Porphyromonas,> 32 µg/mL
same,MIC90,Prevotella/Porphyromonas,> 32 µg/mL
same,MIC50,fusobacteria,> 32 µg/mL
same,MIC90,fusobacteria,> 32 µg/mL
